Experimental data published in patent US20090136517A1, “COMBINED TREATMENT WITH AN EGFR KINASE INHIBITOR AND AN INHIBITOR OF C-KIT” (priority 2007, published 2009).

How the values were obtained:
[1] = tested on: MO7e human leukemia cells; settings: cited from earlier work
[2] = tested on: H2122 NSCLC tumor xenografts; test: Growth of H2122 NSCLC tumor xenografts in mice; assay type: in vivo, female nu/nu CD-1 mice; settings: H2122 xenograft, 14th dosing day, single agent 100 mg/kg oral
Protocol: (refrigeration) until dosing. […] Resulting drug was kept at 5° C. (refrigeration) until dosing.

[3] = tested on: NCI-H292 tumor xenografts; test: Treatment beyond progression model, NCI-H292 tumor xenografts; assay type: in vivo, female nu/nu CD-1 mice; settings: H292 xenografts progressing after 32 days of erlotinib; from time of re-sort; n=8 per group
From the text: Many patients with NSCLC who initially respond to erlotinib therapy develop progressive disease within a year of treatment. […] The mechanism for this phenomenon is not currently known. To evaluate this a preclinical model of progressive disease was utilized. This model utilizes the NCI-H292 tumor xenografts which initially respond very well to erlotinib treatment.
(§1) To run the preclinical treatment beyond progression studies NCI-H292 cells were harvested from cell culture flasks during exponential cell growth, washed twice with sterile PBS, counted and resuspended in PBS to a suitable concentration before s.c. implantation on the right flank of female nu/nu CD-1 mice. Tumors were established to 200±50 mm^3 in size before randomization into vehicle control or erlotinib treatment groups. […] Each animal was maintained on its designated dosing regimen until its tumor volume from the time of re-sort had doubled.

GEO tumor xenografts = test: Treatment beyond progression, GEO model; assay type: in vivo, female nu/nu CD-1 mice; settings: GEO xenografts progressing after 15 days of erlotinib; from time of re-sort; n=8 per group
From the text: as §1, with “study GEO” for “studies NCI-H292”

Structure (SMILES) | GM-CSF stimulated growth of MO7e cells ([1]; GM-CSF stimulated) | apoptosis of MO7e cells ([1]; Kit ligand-stimulated conditions) | Kit ligand-stimulated growth of MO7e cells ([1]; Kit ligand-stimulated) | tumor volume as percent of the initial tumor volume [2] | time to tumor doubling [3] | time to tumor doubling (GEO tumor xenografts)
Cc1ccc(NC(=O)c2ccc(CN3CCN(C)CC3)cc2)cc1Nc1nccc(-c2cccnc2)n1 [Gleevec] | not affected | induces apoptosis | inhibited | – | – | –
O=C(Nc1ccc(OC(F)(F)F)cc1)c1sccc1NCc1ccnc2ccccc12 [OSI-930, 3-[(Quinolin-4-ylmethyl)amino]-N-[4-(trifluoromethoxy)phenyl]thiophene-2-carboxamide] | – | – | – | ~120% | 30 days | 23.5 days
C#Cc1cccc(Nc2ncnc3cc(OCCOC)c(OCCOC)cc23)c1 [erlotinib, [6,7-bis(2-methoxyethoxy)-4-quinazolin-4-yl]-(3-ethynylphenyl) amine] | – | – | – | approximately 250% | 19.6 days | 16.7 days
